Where two headings read alike, the source gives them in different places.
How the values were obtained:
[1] = test system: DU-145 prostate cancer cells; assay: SRB cell proliferation assay, DU-145; type: cell-based; conditions: for IC50: Homo sapiens
Procedure: Cell proliferation was assessed using the sulforhodamine B (SRB) assay. Cells seeded in 96-well plate (2,000-3,000 cell/well) were treated with MPL (0, 1, 5, 10, 25, 50 and 100 μmol/L) for 72 h. Cells were then fixed, washed and stained with 100 μl of 0.4% (w/v) SRB dissolved in 1% acetic acid. Unbound dye was removed by five washes with 1% acetic acid before air drying. Bound SRB was solubilized with 100 μl of 10 mM Tris base (pH 10.5) and the absorbance read at 570 nm. Exactly the same procedure was used to assess MPL-SO2. Both agents were dissolved in ethanol and diluted with media to give the final concentrations required for cell culture assays.

[2] = test system: cdk2, cdk4, cyclins A, and E; assay: Western blot of cell cycle regulatory proteins; type: cell-based; conditions: MPL 0, 5, 10, 25 μM
Procedure: (§1) Whole-protein extracts were obtained and separated by electrophoresis and immunoblots were probed with the indicated antibodies. Western blot analysis showing the levels of these proteins in each extract was analysed using the relevant antibodies. The image represents the exposed radiographic film scanned. The house-keeping gene (GAPDH) was used to confirm similar protein loading and blot transfer.
as §1, with “electrophoresis,” for “electrophoresis”
Protein expression in cells was determined using western blot analysis. After treatment with the indicated concentrations of MPL, cell lysates were prepared and probed with antibodies for cdk2, cdk4, cyclin A, cyclin E, PARP-1 (1:1000 dilutions; Cell Signalling Technology), and p53 (1:200 dilutions; Santa Cruz Biotechnology).

With C[C@](C#N)(COc1cc(C#N)ccc1C(F)(F)F)NC(=O)c1ccc(SC(F)(F)F)cc1 [MPL, N-[(1S)-1-Cyano-2-(5-cyano-2-trifluoromethyl-phenoxy)-1-methyl-ethyl]-4-trifluoromethylsulfanyl-benzamide] as the molecule, how does the IC50 ([1]; DU-145, prostate cancer (Table 2), read-out: IC50 in suppressing proliferation) read?
Its IC50 is 23 µM.

And the IC50 ([1]; DU-145, prostate cancer, 72 h, SRB assay (Table 1), read-out: IC50)?
Its IC50 is 23.5 µM.

And the “effect on DU 145 cells” value ([1]; chemo-resistant, androgen insensitive DU 145)?
Its value is “very effective”.

What about the “expression of cell cycle regulatory proteins cdk2, cdk4, cyclins A and E” value [2] of the same molecule?
Its value is “lower levels of cdk2, cdk4, cyclins A, and E”.

Source: patent publication US10053422B2, “Compounds for the treatment of mTOR pathway related diseases” (Pitney Pharmaceuticals Pty Limited, priority 2012, dated 2018)
